The source of these data is PubChem BioAssay (NCI).

The structures appear in SMILES notation. Several values for one entry are separate records, joined by “and”; a condition that tells them apart may be missing. Identical values can stand only once.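 Values below derive from 48-hour exposures of cells grown in 96-well plates, with endpoints linearly interpolated between the two concentrations bracketing the appropriate inhibition level. GI50 is the concentration that inhibits growth by half. TGI denotes the concentration required for complete inhibition of growth.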

Test systems include HCT-116 colon; SW-620 colon; NCI-H23 lung; SF-295 CNS; MCF7 breast; SK-MEL-28 melanoma; SNB-19 CNS; HS 578T breast; LOX IMVI melanoma; TK-10 renal.
Holding throughout (assay): NCI tumour cell line growth inhibition, 48 h

Consider `COc1c(OC(C)C)cc2cc(O)c(C(=O)NC3Cc4ccc(c(Cl)n4)O[C@@H]4C=C5C#C/C(=C\C#CC6OC56C4OC4CC(C)(O)C(O)C(C)O4)C(OC4CC(O)C(N(C)C)C(C)O4)COC3=O)cc2c1OC` (stereo not given in full), for which the GI50 was 0.584 µg/mL in the test on HCT-116 colon; 0.165 µg/mL in the test with SW-620 colon; 6.32 µM and 0.296 µg/mL in the test with NCI-H23 lung; 9.97 µM and 0.523 µg/mL with SF-295 CNS; 3.16 µg/mL in the test with SK-MEL-28 melanoma; 17.7 µM and 0.956 µg/mL in the test on SNB-19 CNS. For the same compound, the GI50 in the test on LOX IMVI melanoma was 0.529 µg/mL; in the test on TK-10 renal, > 36.3 µM and 37.5 µg/mL. The TGI is 15.7 µg/mL in the test with HCT-116 colon; 37.5 µg/mL with SW-620 colon; > 36.3 µM and 1.79 µg/mL with NCI-H23 lung; > 36.3 µM and 6.24 µg/mL in the test on SF-295 CNS; more than 36.3 µM in the test with MCF7 breast; > 36.3 µM and 37.5 µg/mL with SK-MEL-28 melanoma. Further, the TGI with SNB-19 CNS was > 36.3 µM and 37.5 µg/mL; with HS 578T breast, more than 36.3 µM; with LOX IMVI melanoma, 17.8 µg/mL; in the test on TK-10 renal it was > 36.3 µM and 37.5 µg/mL.
On to `COc1c(CC=C(C)C)c(O)c(C(CC(C)C)c2c(O)c(CC=C(C)C)c(O)c(C(C)=O)c2O)c(O)c1C(C)=O` (stereo not given), for which the TGI in the test with HCT-116 colon amounted to 1.6 µM; in the test with SW-620 colon it was 5.8 µM; in the test on NCI-H23 lung it was 0.877 µM; in the test on SF-295 CNS, 2.28 µM; in the test with MCF7 breast it was 4.84 µM; in the test on SK-MEL-28 melanoma, 5.21 µM. For the same compound, the TGI with SNB-19 CNS was 15.2 µM; in the test on HS 578T breast, 4.63 µM; with LOX IMVI melanoma, 3.59 µM; in the test with TK-10 renal it was 14.6 µM.
As to `O=S(=O)(NCCCNc1cc(-c2cn(-c3ccccc3)nc2-c2cccc(O)c2)ccn1)c1ccc(F)cc1`, the GI50 was 2.91 µM in the test with HCT-116 colon; 3.76 µM in the test with SW-620 colon; 3.48 µM in the test with NCI-H23 lung; 1.95 µM in the test with SF-295 CNS; 3.26 µM in the test on MCF7 breast; 2.58 µM in the test on SK-MEL-28 melanoma. The GI50 is 4.67 µM in the test with SNB-19 CNS, 2.71 µM in the test with HS 578T breast, 3 µM with LOX IMVI melanoma and 7.41 µM in the test on TK-10 renal. The TGI with HCT-116 colon came to 11.7 µM; in the test with SW-620 colon it was 14.2 µM; in the test with NCI-H23 lung, 19 µM; in the test with SF-295 CNS it was 4.09 µM; in the test with MCF7 breast, 12.4 µM; in the test on SK-MEL-28 melanoma, 8.27 µM. Moreover, the TGI in the test on SNB-19 CNS came out at 52.3 µM; with HS 578T breast it was 9.22 µM; in the test with LOX IMVI melanoma it was 10.7 µM; in the test with TK-10 renal, 31.5 µM.
As for `O=S(=O)(NCCCNc1nccc(-c2c(-c3ccc(F)cc3)nc3sccn23)n1)c1ccc(F)cc1`, the GI50 is 5.55 µM in the test on HCT-116 colon; 33.2 µM with SW-620 colon; 17.8 µM in the test with NCI-H23 lung; 20.6 µM with SF-295 CNS; 3.24 µM in the test on MCF7 breast; 20.3 µM with SK-MEL-28 melanoma. The GI50 is 62.1 µM in the test on SNB-19 CNS, 9.66 µM with HS 578T breast, 6.28 µM in the test with LOX IMVI melanoma and 19.2 µM with TK-10 renal. In addition, the TGI with HCT-116 colon, in the test on SW-620 colon, with NCI-H23 lung, with SF-295 CNS, with MCF7 breast and in the test on SK-MEL-28 melanoma was more than 100 µM each time. The TGI in the test with SNB-19 CNS, in the test on HS 578T breast, with LOX IMVI melanoma and in the test with TK-10 renal was more than 100 µM each time.
On to `CC(C)N(Cc1ccc(F)cc1)c1ccc(CO)c(Cl)c1`, for which the GI50 is 0.0415 µM in the test with HCT-116 colon; 0.363 µM with SW-620 colon; 3.31 µM in the test on NCI-H23 lung; 0.25 µM with SF-295 CNS; 0.181 µM in the test with MCF7 breast; 14 µM in the test on SK-MEL-28 melanoma. Besides, the GI50 is 12.2 µM with SNB-19 CNS, 14.8 µM in the test on HS 578T breast, 8.35 µM with LOX IMVI melanoma and 0.0283 µM with TK-10 renal. Further, the TGI in the test on HCT-116 colon came out at 3.75 µM; in the test with SW-620 colon, 15.3 µM; in the test with NCI-H23 lung, 21.8 µM; in the test with SF-295 CNS, 11.8 µM; in the test with MCF7 breast, 13.2 µM; in the test with SK-MEL-28 melanoma, 27.2 µM. Moreover, the TGI in the test on SNB-19 CNS turned out to be 25.3 µM; with HS 578T breast, 37.8 µM; with LOX IMVI melanoma, 21.6 µM; with TK-10 renal it was 0.173 µM.
As for `NCc1ccc(-c2nc(-c3ccc(Cl)c(O)c3)c(-c3ccncc3)[nH]2)cc1`, the GI50 in the test with HCT-116 colon was 15.9 µM; in the test with SW-620 colon it was 24.2 µM; in the test on NCI-H23 lung, 13.5 µM; in the test on SF-295 CNS, more than 25 µM; in the test with MCF7 breast it was more than 25 µM; with SK-MEL-28 melanoma, 5.3 µM. For the same compound, the GI50 is more than 25 µM in the test with SNB-19 CNS, 11.9 µM with HS 578T breast, 16.7 µM in the test on LOX IMVI melanoma and more than 25 µM in the test on TK-10 renal. The TGI in the test on HCT-116 colon, in the test on SW-620 colon, in the test on NCI-H23 lung, in the test on SF-295 CNS, in the test on MCF7 breast and with SK-MEL-28 melanoma was more than 25 µM each time. Further, the TGI in the test with SNB-19 CNS, in the test with HS 578T breast, with LOX IMVI melanoma and in the test with TK-10 renal was more than 25 µM in each case.
As for `C/C(=N\NC(=S)N1CCN(c2ccccn2)CC1)c1ncccn1`, the TGI is 5.05 µM and 14.7 µM in the test on HCT-116 colon; 5.18 µM and 17.8 µM in the test with SW-620 colon; 4.81 µM and 19.3 µM in the test on NCI-H23 lung; 5.83 µM and 6.76 µM with SF-295 CNS; 13.4 µM with MCF7 breast; 7.1 µM and 14.1 µM in the test with SK-MEL-28 melanoma. The TGI is 19 µM with SNB-19 CNS; 31.2 µM with HS 578T breast; 9.45 µM and 2.53 µM in the test with LOX IMVI melanoma; 18.5 µM with TK-10 renal. The GI50 in the test with SW-620 colon was 0.038 µM; in the test with NCI-H23 lung, less than 0.016 µM; in the test with SF-295 CNS, 0.0934 µM; in the test with SK-MEL-28 melanoma, 0.566 µM; with HS 578T breast, 3.01 µM; with LOX IMVI melanoma, less than 0.0183 µM. The GI50 in the test with TK-10 renal was 1.71 µM.
`Cc1ccc(Cl)cc1-n1c(C)nc2c(cnn2-c2ccnc3c(C(F)(F)F)cccc23)c1=O`: the GI50 in the test on HCT-116 colon, in the test with SW-620 colon, in the test on NCI-H23 lung, in the test on SF-295 CNS, with MCF7 breast and in the test with SK-MEL-28 melanoma was more than 100 µM in each case. In addition, the GI50 in the test on SNB-19 CNS, in the test with HS 578T breast, in the test on LOX IMVI melanoma and in the test with TK-10 renal was more than 100 µM each time. Moreover, the TGI with HCT-116 colon, with SW-620 colon, in the test with NCI-H23 lung, in the test with SF-295 CNS, with MCF7 breast and with SK-MEL-28 melanoma was more than 100 µM throughout. Moreover, the TGI in the test with SNB-19 CNS, in the test on HS 578T breast, in the test on LOX IMVI melanoma and in the test on TK-10 renal was more than 100 µM each time.
